These are literature values, as cited in patent US6383817B2, “Cadmium is a risk factor for human pancreatic cancer” (Wake Forest University, priority 1999, dated 2002).

The test system of data set [1] is pancreatic metallothionein. As to conditions: rats.
Data set [2] has as its system rats. As to conditions: repeated injections to rats.
Data set [3] deals with Louisiana red swamp crayfish (Procambarus clarkii). Conditions: day 14; crayfish fed plants grown for 7 days in 0.00224 ppb cadmium.
Test in data set [4]: not given
This is another data set of the same source.

In data set [5] the test system is Wistar rats. As to conditions: injection, vs. 2.2% control.
The subject of data set [6] is mice. As to conditions: injection of 4 mg/kg, relative to saline.

Where two headings read alike, the source gives them in different places.

Regarding `[Cd]` [cadmium], the “correlation (r) between estimated dietary intake of cadmium and pancreatic cancer mortality” value is listed as 0.48 (men) and 0.25 (women). Also, the “increase in pancreatic metallothionein” value is on record as 9.8 fold in data set [1] (injection of 4 mg/kg) and 17.9 fold in data set [1] (injection of 8 mg/kg). In data set [2], the “rats with hepatocytic foci in the pancreata” value is “more than 93%”. The “Accumulation of cadmium in hepatopancreata” value in data set [3] is given as 4,657.6 ppb. For the same compound, the “SMR (x100), pancreatic cancer deaths” value is 130 in data set [4] (Elinder et al. (1985), male cadmium-nickel battery workers, Oskarshamn, Sweden); 220 in data set [4] (Järup et al. (1998), battery workers, Kalmar, Sweden, females); 148 in data set [4] (Järup et al. (1998), battery workers, Kalmar, Sweden, males); 218 in data set [4] (Sorahan et al. (1995), male copper cadmium alloy workers, England and Wales).
`[Cl][Cd][Cl]` [cadmium chloride]: the “incidence of pancreatic islet cell tumors” value in data set [5] is 8.5%. Besides, the “increase in the incorporation of [3H] thymidine in the pancreas” value in data set [6] is on record as 2.5 fold.
